{"source": "patent US11040083B2", "about": "“Polypeptides comprising vinculin binding sites for the treatment of proliferation and/or adhesion related diseases” (PARIS SCIENCES ET LETTRES—QUARTIER LATIN, priority 2015, dated 2021)", "molecules": {"B1": {"name": "IpaA 7-522: V5-tagged IpaA truncated derivative (protein)", "chain": "TQAPTFLYKATSPSSTEYSELKSKISDIHSSQTSLKTPASVSEKENFATSFNQKCLDFLFSSSGKEDVLRSIYSNSMNAYAKSEILEFSNVLYSLVHQNGLNFENEKGLQKIVAQYSELIIKDKLSQDSAFGPWSAKNKKLHQLRQNIEHRLALLAQQHTSGEALSLGQKLLNTEVSSFIKNNILAELKLSNETVSSLKLDDLVDAQAKLAFDSLRNQRKNTIDSKGFGIGKLSRDLNTVAVFPELLRKVLNDILEDIKDSHPIQDGLPTPPEDMPDGGPTPGANEKTSQPVIHYHINNDNRTYDNRVFDNRVYDNSYHENPENDAQSPTSQTNDLLSRNGNSLLNPQRALVQKVTSVLPHSISDTVQTFANNSALEKVFNHTPDNSDGIGSDLLTTSSQERSANNSLSRGHRPLNIQNSSTTPPLHPEGVTSSNDNSSDTTKSSASLSHRVASQINKFNSNTDSKVLQTDFLSRNGDTYLTRETIFEASKKVTNSLSNLISLIGTKSGTQERELQ", "modifications": "left off: small tags and cut ends", "notes": "V5-tagged IpaA truncated derivative"}, "B2": {"name": "IpaA 7-422: V5-tagged IpaA truncated derivative in which the IpaA VBS3 was deleted (protein)", "chain": "TQAPTFLYKATSPSSTEYSELKSKISDIHSSQTSLKTPASVSEKENFATSFNQKCLDFLFSSSGKEDVLRSIYSNSMNAYAKSEILEFSNVLYSLVHQNGLNFENEKGLQKIVAQYSELIIKDKLSQDSAFGPWSAKNKKLHQLRQNIEHRLALLAQQHTSGEALSLGQKLLNTEVSSFIKNNILAELKLSNETVSSLKLDDLVDAQAKLAFDSLRNQRKNTIDSKGFGIGKLSRDLNTVAVFPELLRKVLNDILEDIKDSHPIQDGLPTPPEDMPDGGPTPGANEKTSQPVIHYHINNDNRTYDNRVFDNRVYDNSYHENPENDAQSPTSQTNDLLSRNGNSLLNPQRALVQKVTSVLPHSISDTVQTFANNSALEKVFNHTPDNSDGIGSDLLTTSSQERSANNSLSRGHRPLN", "modifications": "left off: small tags and cut ends", "notes": "V5-tagged IpaA truncated derivative in which the IpaA VBS3 was deleted"}, "B3": {"name": "GFP-A524 (protein)", "chain": "KSKDITKSTTEHRINNKLKVTDANIRNYVTETNADTIDKNHAIYEKAKEVSSALSKVLSKIDDTSAELLTDDISDLKNNNDITAENNNIYKAAKDVTTSLSKVLKNINKD", "modifications": "left off: large carriers"}, "B4": {"name": "HVD1: vinculin derivative containing only amino acid residues 1 to 257 of HV (D1 domain) (protein, listed as Homo sapiens)", "chain": "MPVFHTRTIESILEPVAQQISHLVIMHEEGEVDGKAIPDLTAPVAAVQAAVSNLVRVGKETVQTTEDQILKRDMPPAFIKVENACTKLVQAAQMLQSDPYSVPARDYLIDGSRGILSGTSDLLLTFDEAEVRKIIRVCKGILEYLTVAEVVETMEDLVTYTKNLGPGMTKMAKMIDERQQELTHQEHRVMLVNSMNTVKELLPVLISAMKIFVTTKNSKNQGIEEALKNRNFTVEKMSAEINEIIRVLQLTSWDEDA", "modifications": "Vinculin domain D1 (HVD1)"}}, "key": {"talin H1-H4 [1]": {"biological_target": "T1, talin H1-H4 (Homo sapiens, UniProt Q9Y490)", "T1 sequence (Q9Y490 482-636)": "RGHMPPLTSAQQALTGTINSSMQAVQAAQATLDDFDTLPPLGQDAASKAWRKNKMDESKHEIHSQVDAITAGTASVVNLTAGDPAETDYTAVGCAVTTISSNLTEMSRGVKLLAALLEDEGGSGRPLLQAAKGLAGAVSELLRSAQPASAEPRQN", "assay": "Native-PAGE gel shift", "type": "binding", "experimental": "Talin H1-H4 and IpaA peptides/proteins were incubated in binding buffer for 1 hour at 4° C. After incubation, the protein/peptides were mixed in a 2× Native loading buffer (62.5 mM Tris pH 6.8, Glycerol 25%) and separated by Tris-Glycine Native-PAGE electrophoresis. Gels were stained using standard colloidal Coomassie stain.\nTalin H1-H4 and IpaA peptides/proteins at different molar ratios were incubated in binding buffer (25 mM Tris pH 7.4, 100 mM NaCl and 1 mM β-Mercaptoethanol) for 1 hour at 4° C. After incubation, the protein/peptides were mixed in a 2× Native loading buffer (62.5 mM Tris pH 6.8, Glycerol 25%) and separated by Tris-Glycine Native-PAGE electrophoresis. The Native PAGE electrophoresis gels were stained using standard colloidal Coomassie stain."}, "talin H1-H4 [2]": {"biological_target": "T1, talin H1-H4", "assay": "Isothermal titration calorimetry", "type": "binding", "conditions": "for N (stoichiometry): ITC non-linear fit; for N (stoichiometry) / ΔG free enthalpy / ΔH enthalpy / −TΔS entropic contribution: 25° C.", "experimental": "Vinculin, IpaA proteins and peptides were extensively dialyzed in binding buffer (25 mM Tris pH 7.4, 100 mM NaCl and 1 mM β-Mercaptoethanol). The final concentration of all proteins/peptides was measured using a BCA test (Thermo Scientific). Talin-IpaA binding was measured by microcalorimetry using an ITC200 calorimeter (MicroCal) at 25° C. 200 μL of 20-100 μM of talin H1-H4 protein was added to the cell and binding in the presence of different concentrations of IpaA VBS1, VBS2 or VBS3 peptides was measured. In other experiments, 200 μL of a 16 μM equimolar mix of A483:HVD1 was incubated for one hour at room temperature prior to addition to the cell. Binding to talin H1-H4 (100 μM) was measured. Typically, 20-40 injections of 2 μL of ligand were made with intervals of 320 seconds between each addition, with a reference power of 12 μcal/sec. Data were analyzed using the MicroCal software provided by manufacturer."}, "HeLa cells": {"system": "HeLa cells", "assay": "Immunofluorescence of V5-tagged IpaA derivatives and talin", "type": "cell-based", "conditions": "V5 epitope and talin staining", "description": "FIG. 8 is a set of photographs showing the interaction between IpaA VBS3 and talin (H1-H4). A, IpaA constructs used in this study. The VBSs are depicted as boxes in IpaA full length (IpaA-FL), with the residue number corresponding to the first residue of the corresponding VBS. The first and last IpaA residues are annotated for the IpaA truncated derivatives. V5: V5 epitope. B, HeLa cells were transfected with IpaA derivatives, fixed and processed for immunofluorescence staining of the V5 epitope and talin. Representative fluorescence images are shown, with a larger magnification of the inset boxed in the left panels. Scale bar=5 μm. C, Native PAGE analysis of IpaA VBSs and talin H1-H4 interaction. 1. Purified talin H1-H4 was incubated with the indicated IpaA VBS peptides and analyzed using 6-18% gradient native PAGE. The talin H1-H4: IpaA VBS molar ratio is indicated, with 1 corresponding to a final concentration of 25 μM. The migration of talin H1-H4 and of the talin H1-H4:IpaA VBS3 complex are indicated."}, "melanocytes": {"system": "melanocytes", "assay": "Time lapse cell migration", "type": "cell-based", "conditions": "6 movies per sample, preliminary"}, "[3]": {"assay": "Size exclusion chromatography, hydrodynamic radius", "type": "physicochemical", "experimental": "The purified proteins HVD1, A483, A524 and Talin H1-H4 were used at an equimolar concentration of 20 μM and incubated at 4° C. for one hour in binding buffer. The protein mixtures (200 μL) were injected in a FPLC chromatography system (FPLC Pharmacia) at 16° C. in a Superdex 75 HR 10/30 column (GE Healthcare) previously equilibrated with 10 volumes of binding buffer. The SEC system was calibrated with a Low Molecular Weight Gel Filtration Kit (ref. 17-0442-01, GE Healthcare) and the hydrodynamic radius (Angstroms) of the reference proteins (BSA, OVA, ChyA and RibA) correlated with the elution volume (Ve) using an Euler exponential equation: Hydrodynamic radius (Ang)=210.46 e^−0.189 Ve (mL), with a correlation squared coefficient of R^2=0.9973. Fractions corresponding to elution volume 8-10 mLs were recovered, and analyzed by SDS-PAGE using 15% polyacrylamide gels."}}, "note": "No end group written: not given here."}
{"molecule": "CC[C@H](C)[C@H](N)C(=O)N[C@@H](Cc1ccc(O)cc1)C(=O)N[C@@H](CCCCN)C(=O)N[C@@H](C)C(=O)N[C@@H](C)C(=O)N[C@@H](CCCCN)C(=O)N[C@@H](CC(=O)O)C(=O)N[C@H](C(=O)N[C@H](C(=O)N[C@H](C(=O)N[C@@H](CO)C(=O)N[C@@H](CC(C)C)C(=O)N[C@@H](CO)C(=O)N[C@@H](CCCCN)C(=O)N[C@H](C(=O)N[C@@H](CC(C)C)C(=O)N[C@@H](CCCCN)C(=O)N[C@@H](CC(N)=O)C(=O)N[C@H](C(=O)N[C@@H](CC(N)=O)C(=O)N[C@@H](CCCCN)C(=O)N[C@@H](CC(=O)O)C(=O)O)[C@@H](C)CC)C(C)C)[C@@H](C)O)[C@@H](C)O)C(C)C", "note": "[IpaA VBS1]", "values": [{"measurement": "formation of a complex with talin H1-H4", "setting": "talin H1-H4 [1]", "result": "did not induce the formation"}, {"measurement": "N (stoichiometry)", "setting": "talin H1-H4 [2]", "result": 1.22}, {"measurement": "ΔG free enthalpy", "setting": "talin H1-H4 [2]; ITC", "result": -6.575, "unit": "kcal/mol"}, {"measurement": "ΔH enthalpy", "setting": "talin H1-H4 [2]; ITC", "result": -4.104, "unit": "kcal/mol"}, {"measurement": "−TΔS entropic contribution", "setting": "talin H1-H4 [2]; ITC", "result": -2.471, "unit": "kcal/mol"}]}
{"molecule": "CC[C@H](C)[C@H](NC(=O)[C@H](CC(C)C)NC(=O)[C@H](CO)NC(=O)[C@@H](NC(=O)[C@H](CC(C)C)NC(=O)[C@H](CC(N)=O)NC(=O)[C@H](CO)NC(=O)[C@H](CC(C)C)NC(=O)[C@H](CO)NC(=O)[C@H](CC(N)=O)NC(=O)[C@@H](NC(=O)[C@@H](NC(=O)[C@H](CCCCN)NC(=O)[C@H](CCCCN)NC(=O)[C@H](CO)NC(=O)[C@H](C)NC(=O)[C@H](CCC(=O)O)NC(=O)[C@H](Cc1ccccc1)NC(=O)[C@@H](NC(=O)[C@@H](NC(=O)[C@H](CCC(=O)O)NC(=O)[C@H](CCCNC(=N)N)NC(=O)[C@@H](N)[C@@H](C)O)[C@@H](C)O)[C@@H](C)CC)C(C)C)[C@@H](C)O)[C@@H](C)CC)C(=O)NCC(=O)N[C@H](C(=O)O)[C@@H](C)O", "note": "[IpaA VBS3]", "values": [{"measurement": "concentration at which the complex with talin H1-H4 / migration shift could be detected", "setting": "talin H1-H4 [1]", "result": 25, "unit": "µM"}, {"measurement": "N (stoichiometry)", "setting": "talin H1-H4 [2]", "result": 0.893}, {"measurement": "ΔG free enthalpy", "setting": "talin H1-H4 [2]; ITC", "result": -9.219, "unit": "kcal/mol"}, {"measurement": "ΔH enthalpy", "setting": "talin H1-H4 [2]; ITC", "result": -6.393, "unit": "kcal/mol"}, {"measurement": "−TΔS entropic contribution", "setting": "talin H1-H4 [2]; ITC", "result": -2.826, "unit": "kcal/mol"}, {"measurement": "ΔG free enthalpy", "setting": "talin H1-H4 [2]; ITC, listed as IpaA VBS3/TBS", "result": "-9.07 ± 0.103", "unit": "kcal/mol"}]}
{"molecule": "IYEKAKEVSSALSKVLSKI (IpaA VBS2; listed as Shigella flexneri) [purified synthetic IpaA VBS peptide]", "values": [{"measurement": "formation of a complex with talin H1-H4", "setting": "talin H1-H4 [1]", "result": "did not induce the formation"}, {"measurement": "interaction with talin H1-H4 by ITC", "setting": "talin H1-H4 [2]; ITC", "result": "did not show any interaction"}]}
{"molecule": "YTKKELIECARRVSEKVSHVLAALQA [talin H46, reference compound]", "values": [{"measurement": "formation of a complex with talin H1-H4", "setting": "talin H1-H4 [1]", "result": "formed a complex"}, {"measurement": "Kd", "setting": "talin H1-H4 [2]", "result": 60, "unit": "nM"}, {"measurement": "ΔH enthalpy", "setting": "talin H1-H4 [2]; ITC", "result": -16.97, "unit": "kcal/mol"}, {"measurement": "−TΔS entropic contribution", "setting": "talin H1-H4 [2]; ITC", "result": "+7200 cal/mol"}]}
{"molecule": "B1", "values": [{"measurement": "localization relative to talin", "setting": "HeLa cells", "result": "localized to focal adhesions and other talin-containing structures"}]}
{"molecule": "B2", "values": [{"measurement": "localization relative to talin", "setting": "HeLa cells", "result": "did not co-localize with talin"}]}
{"molecule": "B3", "values": [{"measurement": "effect on cell migration / motility", "setting": "melanocytes", "result": "did not drastically alter the motility"}]}
{"molecule": "B4", "values": [{"measurement": "Radiusg (hydrodynamic radius of a globular protein with the same MW)", "setting": "[3]", "result": 24.36, "unit": "Ang"}, {"measurement": "Radiusm/Radiusg (RH/RG ratio)", "setting": "[3]", "result": 1.16}, {"measurement": "Radiusm (estimated hydrodynamic radius)", "setting": "[3]; SEC Superdex 75, 20 μM equimolar", "result": 28.25, "unit": "Ang"}]}
